The target in one assay is T1, R3HCC1L (Homo sapiens, UniProt Q7Z5L2).
T1 construct: endogenous in cells; host or cells: K562 cell lysate
The assay is described as follows: PISA thermal profiling, K562 cell lysates. It is filed as binding. The conditions noted are these: K562 lysate, 30 µM, 15 min, n=3. On the procedure:
(§1) Experiments were performed as described earlier with few modifications. In short, 3 replicates of intact HepG2 cells were treated with 30 µM UNC0638, […] or corresponding volume of DMSO in medium-free experimental buffer for 60 min at 37 °C with end-over-end rotation. For lysates: Washed K562 cells were resuspended in medium-free experimental buffer and lysed by three freeze-thaw cycles. Lysate was centrifugated 20,000 × g for 20 min at 4 °C to remove cell debris. The cleared lysate was treated with 30 µM UNC0638, UNC0373 or corresponding volume of DMSO for 15 min at RT with end-over-end rotation. Each treated cell suspension or lysate was divided into 12 aliquots and subjected to a 12-step heat gradient from 44 °C to 64 °C. All the temperature points were pooled together to form […] individual samples. Soluble fraction was separated from precipitated proteins […]
(§2) by centrifugation at 30,000 × g for 20 min at 4 °C. The soluble fractions were collected to fresh tubes and further processed to be analysed with mass spectrometry. Sample handling, TMT labelling, LC-MS/MS analysis, protein identification and data analysis was performed as described earlier.[12] […]
(§3) Figure S3: Western blot of elution fractions after chemical pulldown with UNC0965 in MCF7 cell extract pre-incubated with indicated compounds (20 μM) or DMSO.
(§4) Figure S4: PISA thermal profiling results in K562 cell lysates. A) Volcano plots of UNC0638 and […]
(§5) Dashed lines represent amplitude > 0.05, < - 0.05 and log10(adjusted p-values) > 2 (two-sided two sample t-test, Benjamini-Hochberg corrected, n = 3).
(§6) 6,924 proteins were identified. B) UNC0737 stabilises CHKA stronger than UNC0638. […]

For the next assay, the target named is T2, RBBP8NL (Homo sapiens, UniProt Q8NC74).
T2 construct: endogenous in cells; host or cells: K562 cell lysate
T2 sequence (Q8NC74 whole entry): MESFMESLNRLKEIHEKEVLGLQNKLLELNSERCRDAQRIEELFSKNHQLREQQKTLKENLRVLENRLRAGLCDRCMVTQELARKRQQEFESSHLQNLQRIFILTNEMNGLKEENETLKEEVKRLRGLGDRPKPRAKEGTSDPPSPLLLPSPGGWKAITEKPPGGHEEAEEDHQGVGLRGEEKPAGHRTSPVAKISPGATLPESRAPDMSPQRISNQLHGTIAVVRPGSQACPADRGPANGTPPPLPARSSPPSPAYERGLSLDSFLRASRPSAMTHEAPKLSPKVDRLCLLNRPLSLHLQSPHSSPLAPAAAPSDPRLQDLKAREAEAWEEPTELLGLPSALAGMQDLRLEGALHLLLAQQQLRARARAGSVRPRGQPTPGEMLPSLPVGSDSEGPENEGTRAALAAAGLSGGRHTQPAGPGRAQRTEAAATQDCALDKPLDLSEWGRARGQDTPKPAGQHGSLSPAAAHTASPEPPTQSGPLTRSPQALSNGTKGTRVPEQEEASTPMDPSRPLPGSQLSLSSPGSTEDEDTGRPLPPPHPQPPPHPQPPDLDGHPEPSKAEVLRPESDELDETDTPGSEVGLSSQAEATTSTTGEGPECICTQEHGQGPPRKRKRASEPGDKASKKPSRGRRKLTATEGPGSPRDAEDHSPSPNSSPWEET
The assay can be described thus: PISA thermal profiling, K562 cell lysates. The conditions noted are these: K562 lysate, 30 µM, 15 min, n=3. It is filed as binding. The protocol:
as §1, §2, §3, §4, §5, §6

The target of the next assay is T3, HNRNPD (Homo sapiens, UniProt Q14103).
T3 construct: endogenous in cells; host or cells: K562 cell lysate
T3 sequence (Q14103 whole entry): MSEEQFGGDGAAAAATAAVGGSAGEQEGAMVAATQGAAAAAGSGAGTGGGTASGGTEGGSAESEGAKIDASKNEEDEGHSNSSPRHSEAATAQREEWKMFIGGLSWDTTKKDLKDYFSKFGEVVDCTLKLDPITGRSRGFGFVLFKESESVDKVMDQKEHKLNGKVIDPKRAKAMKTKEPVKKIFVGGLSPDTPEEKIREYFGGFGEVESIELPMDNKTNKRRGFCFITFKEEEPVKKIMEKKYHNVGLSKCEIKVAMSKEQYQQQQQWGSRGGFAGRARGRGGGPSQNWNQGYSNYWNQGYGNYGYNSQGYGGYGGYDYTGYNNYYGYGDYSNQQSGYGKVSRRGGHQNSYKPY
The assay is described as follows: PISA thermal profiling, K562 cell lysates. In kind it is binding. The following applies: K562 lysate, 30 µM, 15 min, n=3. On the procedure:
as §1, §2, §3, §4, §5, §6

The subject of assay [1] is choline metabolism in MCF7 cells. The assay is described as follows: NMR choline metabolite analysis. In kind it is cell-based, human. The conditions noted are these: for extracellular choline uptake: dose-dependent. The protocol:
NMR Choline Metabolite Analysis
Sample preparation for the quantification of metabolites by nuclear magnetic resonance (NMR) spectroscopy was performed as described previously.[13] Briefly, 0.3 mL of cell culture medium (conditioned medium) was collected from each sample and mixed with 2 volumes of pre-chilled methanol (< -70 °C), vortexed for 30 s and placed on dry ice for at least 30 min. Following centrifugation for 20 min at 18100 × g and 0 °C, the supernatant extract of culture medium was dried and stored until NMR analysis. The remaining culture medium from each sample was discarded and cells were washed once with PBS (37 °C), and quenched with liquid nitrogen. Polar metabolites were extracted with 1.4 mL of an ice-cold solution of 67.5:7.5:25 (v/v/v) of methanol/chloroform/water.
Samples were centrifuged at 18100 × g for 15 min at 0 °C and the supernatant consisted of intracellular polar metabolites was collected and dried under nitrogen gas stream. The remaining cell pellets were used for protein mass quantification using the Pierce™ BCA Protein Assay Kit (Thermo Scientific™).
Samples from both cell culture medium and cell extracts were reconstituted in 220 µL of 50 mM phosphate buffer (pH 7.4) solution in deuterated water containing 0.05 mM trimethylsilyl propionic-d4-sodium salt (TSP-d4, Cambridge Isotope Laboratories, Inc.) as internal standard used for NMR referencing and quantification. One NMR experiment (pulse sequence: noesygppr1d; Bruker Biospin) was collected for each sample in a 14.1 T (600 MHz for 1H) Bruker Avance Neo NMR. All recorded NMR spectra were imported in Chenomx NMR suite 9.0 (Chenomx NMR suite, v9.0) for the quantification of choline, phosphocholine sn-glycero-phosphocholine (GPC) and betaine. Quantitative data (nmoles or μM) were then normalized to the amount of total protein mass (mg) of each sample. […]

Assay [2] has as its target T4, CHKA (Homo sapiens, UniProt P35790). The assay is described as follows: Differential scanning fluorimetry (DSF). Further details: host or cells: E. coli BL21(DE3). The following applies: 10 µM compound, 2 µM CHKA. It is filed as binding. On the procedure: mM NaCl, 5% glycerol, 500 mM imidazole, 0.5% TCEP, pH 7.5), the eluent was concentrated, and further purified by size exclusion chromatography using a HiLoad 16/600 Superdex S200 column (Cytiva) pre-equilibrated in Buffer C (20 mM HEPES, 150 mM NaCl, pH 7.5). The resulting protein purity was assessed by SDS-PAGE, and protein identity was confirmed by tryptic digest analysis. Protein concentration was determined to be 35.5 mg/mL, and was calculated using a theoretical molar extinction coefficient of 58830 M-1cm-1 as determined by ProtParam.[5] […]
Differential Scanning Fluorimetry (DSF)
DSF buffer (20 mM HEPES, 150 mM NaCl, 0.5 mM TCEP, pH 7.5) containing 5x SYPRO Orange (Thermo Fisher Scientific) and CHKA (2 µM) was incubated with 10 µM compound at 2% DMSO final concentration in a 96-well semi-skirted real time PCR plate. Fluorescence was measured in each well over a 40-80 °C gradient using a Stratagen MX3005p qPCR instrument (Agilent Technologies). […]
Target sequence in this assay (P35790 75-457 limits assumed): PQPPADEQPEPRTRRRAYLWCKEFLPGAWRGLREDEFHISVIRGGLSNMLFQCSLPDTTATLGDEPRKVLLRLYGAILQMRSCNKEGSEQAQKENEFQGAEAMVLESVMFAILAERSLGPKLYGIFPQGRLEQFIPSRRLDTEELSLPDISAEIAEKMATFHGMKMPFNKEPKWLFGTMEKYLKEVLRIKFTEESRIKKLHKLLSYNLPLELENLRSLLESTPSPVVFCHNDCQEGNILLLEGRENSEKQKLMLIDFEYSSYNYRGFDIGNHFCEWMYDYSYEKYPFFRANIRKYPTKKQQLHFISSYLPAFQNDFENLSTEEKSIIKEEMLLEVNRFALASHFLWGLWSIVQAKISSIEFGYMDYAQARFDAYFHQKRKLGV
On the technique in general: Differential scanning fluorimetry follows unfolding on heating by fluorescence.

In assay [3] the target is T4, CHKA. The assay is described as follows: PISA thermal profiling, K562 cell lysates. Further details: endogenous in cells. It is filed as binding. The following applies: 30 µM; for stabilisation of CHKA (PISA): K562 cell lysates; for effect_CETSA_Lysate (PISA amplitude), CHKA: K562 lysate, 15 min, n=3. On the procedure: as §1, §2, §3, §4, §5, §6
Target sequence in this assay (P35790 whole entry): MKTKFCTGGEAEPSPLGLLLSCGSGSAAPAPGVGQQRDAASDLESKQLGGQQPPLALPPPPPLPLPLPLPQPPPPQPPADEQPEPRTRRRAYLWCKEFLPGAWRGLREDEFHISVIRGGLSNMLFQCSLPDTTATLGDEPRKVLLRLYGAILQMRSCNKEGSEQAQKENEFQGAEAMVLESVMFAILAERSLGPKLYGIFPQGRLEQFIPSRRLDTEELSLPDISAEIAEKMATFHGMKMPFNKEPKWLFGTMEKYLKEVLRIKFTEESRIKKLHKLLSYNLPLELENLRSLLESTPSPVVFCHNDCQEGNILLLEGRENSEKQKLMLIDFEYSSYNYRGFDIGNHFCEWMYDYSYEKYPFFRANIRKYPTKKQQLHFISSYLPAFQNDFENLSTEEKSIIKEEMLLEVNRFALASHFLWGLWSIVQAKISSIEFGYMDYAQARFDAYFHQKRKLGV

“Also recorded” adds a separate entry of the source. Like-named read-outs stand apart in the source and are kept apart here.

T1 sequence (Q7Z5L2 1-184 isoform Q7Z5L2-3): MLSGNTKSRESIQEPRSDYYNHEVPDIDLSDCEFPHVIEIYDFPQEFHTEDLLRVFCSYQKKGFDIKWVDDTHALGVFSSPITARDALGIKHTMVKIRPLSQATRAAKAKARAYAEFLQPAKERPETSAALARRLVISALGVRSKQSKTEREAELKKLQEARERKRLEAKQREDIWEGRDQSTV

As to `COc1cc2c(NC3CCN(C(C)C)CC3)nc(C3CCCCC3)nc2cc1OCCCN1CCCC1` [UNC0638], the “effect_CETSA_Lysate (PISA amplitude), R3HCC1L” value on R3HCC1L turned out to be 0.239. Moreover, the “effect_CETSA_Lysate (PISA amplitude), RBBP8NL” value on RBBP8NL was 0.217. In addition, the “effect_CETSA_Lysate (PISA amplitude), HNRNPD” value on HNRNPD came to 0.387. In assay [1], the betaine entry is “did not observe changes”, the intracellular choline levels result is given as “not significantly affected”, the “phosphocholine (pCho) formation/levels relative to control” value is listed as “reduction of pCho formation; also recorded: significantly reduced” and the “sn‐glycerophosphocholine (GPC)” value is listed as “not significantly affected”. Further, in assay [1], the extracellular choline uptake entry is listed as “decrease in extracellular choline uptake”. In addition, the “thermal stabilisation of CHKA (DSF)” value on CHKA [2] was “thermal stabilisation”. For the same compound, on CHKA [3], the “stabilisation of CHKA (PISA)” value is given as “selective stabilisation of CHKA” and the “effect_CETSA_Lysate (PISA amplitude), CHKA” value is reported as 0.202.
For `COc1cc2c(N(C)C3CCN(C(C)C)CC3)nc(C3CCCCC3)nc2cc1OCCCN1CCCC1` [UNC0737], the “effect_CETSA_Lysate (PISA amplitude), R3HCC1L” value at R3HCC1L amounted to 0.415. The “effect_CETSA_Lysate (PISA amplitude), RBBP8NL” value at RBBP8NL is listed as 0.393. Besides, the “effect_CETSA_Lysate (PISA amplitude), HNRNPD” value on HNRNPD stood at 0.605. Moreover, in assay [1], the betaine result is “did not observe changes”, the intracellular choline levels entry is given as “not significantly affected”, the “phosphocholine (pCho) formation/levels relative to control” value is recorded as “reduction of pCho formation” and the “sn‐glycerophosphocholine (GPC)” value is on record as “not significantly affected”. Besides, in assay [1], the extracellular choline uptake result is on record as “decrease in extracellular choline uptake”. Moreover, the “phosphocholine (pCho) formation/levels relative to control” value in assay [1] (listed as UN0737) is “significantly reduced”. Moreover, the “thermal stabilisation of CHKA (DSF)” value at CHKA [2] was “thermal stabilisation”. In addition, at CHKA [3], the “stabilisation of CHKA (PISA)” value is recorded as “selective stabilisation of CHKA” and the “effect_CETSA_Lysate (PISA amplitude), CHKA” value was found to be 0.504.
